Measured values from patent publication US12012615B2, “Method of making induced pluripotent stem cells using p53 inhibitors” (Kyoto University, priority 2008, dated 2024).

What was measured:
p53 [1] = test: p53 protein level by western blot after shRNA transduction; type: cell-based, human; details: western blot six days after retroviral transduction
Experimental: Retroviral vectors for p53 shRNA or control RNA were transduced into HDFs. Six days after the transduction, p53 protein levels were determined by western blot analyses.
(B) In another experiment, we examined effects of shRNA against human p53 (shRNA2; Stewart S. A. et al. RNA 9(4), 493 (2003)). Retroviral vectors for shRNA expression, pMKO.1-puro (Addgene #8452), pMKO.1-puro p53 shRNA1 (Addgene #10671) and pMKO.1-puro p53 shRNA2 (Addgene #10672; shRNA sequence is shown in SEQ ID NO:28), were obtained from Addgene. Retroviruses for shRNAs, and the four or three reprogramming factors were produced in PLAT-E cells. For iPS cell generation, equal amounts of PLAT-E supematants containing each retrovirus were mixed and transduced to HDF.

p53 [2] = test: Luciferase reporter driven by a p53-responsive element in HDF; type: cell-based, human; details: luciferase activity two days after introduction
Description: (§1) FIGS. 24A-24C show effects of p53 suppression on p21 and Myc. Genes regulated (4 increased and 7 decreased) by p53 suppression were introduced into HDFs together with the four reprogramming factors (FIG. 24A) or the four reprogramming factors and the p53 shRNA (FIG. 24B). On day 24 (FIG. 24A) or day 28 (FIG. 24B) post-transduction, numbers of iPS cell colonies were counted. **; p<0.01 compared to DsRed control (n=3). Luciferase reporters containing responsive elements of p53 or Myc, or that driven by the polymerase II promoter were introduced into HDFs, together with the mock retroviral vector, the p53 shRNA, the four reprogramming factors, or the three factors devoid of Myc. Two days later, luciferase activities were determined (c). **; p<0.01, *; p<0.05 compared to the mock control (n=3).
(§2) The p21 protein binds to Myc and suppresses its transcriptional activity (Kitaura, H. et al., J Biol. Chem., 275(14), 10477-10483 (2000)). This might contribute to the increased efficiency of iPS cell generation by p53-p21 suppression. We evaluated the Myc activity in HDF by introducing luciferase reporters driven by either a p53-responsive element or a Myc responsive element (FIG. 24C). We confirmed the p53 activity was reduced by the shRNA. […] The effect was stronger than that observed with the introduction of the four factors including c-Myc.

Myc = test: Luciferase reporter driven by a Myc responsive element in HDF; type: cell-based, human; details: luciferase activity two days after introduction
Description: as §1, §2

HDFs = test: Human iPS cell generation with p53 shRNA co-transduction; type: cell-based; details: co-introduced with the four reprogramming factors
Description: The retroviral vector expressing either p53 shRNA or control RNA was transduced into HDFs together with the four reprogramming factors. To rescue RNAi-mediated knockdown, a retroviral vector for mouse p53 was co-introduced.

HDF = test: DNA microarray gene expression, control HDF against p53 knockdown HDF; type: cell-based, human
Description: To elucidate p53 target genes that are responsible for the observed enhancement of iPS cell generation, we compared gene expression between p53 wild-type MEF and p53-null MEF by DNA microarrays, and between control HDF and p53 knockdown HDF. In MEF, 1590 genes increased and 1485 genes decreased >5 fold in p53-null MEF. In HDF, 290 genes increased and 430 genes decreased >5 fold by p53 shRNA. Between mouse and human, eight increased genes are common, including v-myb myeloblastosis viral oncogene homolog (MYB) and a RAS oncogenes family, RAB39B (Table 2).

Substance: p53 shRNA2: shRNA against human p53, SEQ ID NO:28, retroviral vector pMKO.1-puro p53 shRNA2 (Addgene #10672) (GACTCCAGTGGTAATCTACTGCTCGAGCAGTAGATTACCACTGGAGTC)
- p53 protein level (p53 [1]): effectively suppressed
- p53 activity (luciferase reporter) (p53 [2]): reduced
- Myc activity (luciferase reporter) (Myc): significantly enhanced
- numbers of human iPS cell colonies (HDFs): markedly increased
- number of genes decreased >5 fold (HDF): 430 genes
- number of genes increased >5 fold (HDF): 290 genes
